From patent US9113629B2, “4-amino-6-(4-substituted-phenyl)-picolinates and 6-amino-2-(4-substituted-phenyl)-pyrimidine-4-carboxylates and their use as herbicides” (DOW AGROSCIENCES LLC, priority 2013, dated 2015)
Read-outs that look alike come from different tables or passages of the source.

What was measured:
[1] = system: Key Broadleaf Weed and Crop Species; experiment: Post-emergent Test II herbicidal activity (Table 5); format: in vivo; settings: post-emergence, 336 h, post-emergent, 14 days after application; for pest or weed control at 70 g/ha: 70 g ai/ha; for pest or weed control at 140 g/ha: 140 g ai/ha
In short: (§1)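 Spray rates: a highest rate plus ½×, ¼×, ⅛×, 1/16×, all delivered at 187 L/ha to plants at the first–second true leaf stage. Readout is a visual percent injury score at 14 d, where 100 means complete kill.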

[2] = system: Key Grass and Sedge Weeds as well as Grass Crops; experiment: Post-emergent Test II herbicidal activity (Table 6); format: in vivo; settings: post-emergence, 336 h; for pest or weed control at 70 g/ha: application rate 70 g ai/ha; for pest or weed control at 140 g/ha: application rate 140 g ai/ha
In short: as §1

[3] = ABUTH: velvetleaf (Abutilon theophrasti), read-out: Visual Growth Reduction (%) 14 Days After Application ABUTH
[4] = AMARE: redroot pigweed (Amaranthus retroflexus), read-out: Visual Growth Reduction (%) 14 Days After Application AMARE
[5] = BRSNN: oilseed-rape, canola (Brassica napus), read-out: Visual Growth Reduction (%) 14 Days After Application BRSNN
[6] = CHEAL: lambsquarters (Chenopodium album), read-out: Visual Growth Reduction (%) 14 Days After Application CHEAL
[7] = EPHHL: wild poinsettia (Euphorbia heterophylla), read-out: Visual Growth Reduction (%) 14 Days After Application EPHHL
[8] = HELAN: sunflower (Helianthus annuus), read-out: Visual Growth Reduction (%) 14 Days After Application HELAN
[9] = VIOTR: wild pansy (Viola tricolor), read-out: Visual Growth Reduction (%) 14 Days After Application VIOTR
[10] = CYPES: yellow nutsedge (Cyperus esculentus), read-out: Visual Growth Reduction (%) 14 Days After Application, CYPES
[11] = DIGSA: crabgrass (Digitaria sanguinalis), read-out: Visual Growth Reduction (%) 14 Days After Application, DIGSA
[12] = ECHCG: barnyardgrass (Echinochloa crus-galli), read-out: Visual Growth Reduction (%) 14 Days After Application, ECHCG
[13] = ORYSA: rice (Oryza sativa), read-out: Visual Growth Reduction (%) 14 Days After Application, ORYSA
[14] = SETFA: giant foxtail (Setaria faberi), read-out: Visual Growth Reduction (%) 14 Days After Application, SETFA
[15] = SORVU: grain sorghum (Sorghum vulgare), read-out: Visual Growth Reduction (%) 14 Days After Application, SORVU
[16] = TRZSS (wheat, Triticum aestivum), read-out: Visual Growth Reduction (%) 14 Days After Application, TRZSS
[17] = ZEAMX: maize, corn (Zea mays), read-out: Visual Growth Reduction (%) 14 Days After Application, ZEAMX

For `COC(=O)c1nc(-c2cc(F)c(C(F)F)cc2F)cc(N)c1Cl` [Compound 205], the pest or weed control at 70 g/ha [1, 3] was 95 to 100%, the pest or weed control at 140 g/ha [1, 3] was 95 to 100% and the pest or weed control at 70 g/ha [1, 4] was 95 to 100%. For the same compound, the pest or weed control at 140 g/ha [1, 4] was 95 to 100%, the pest or weed control at 70 g/ha [1, 5] was 60 to 74% and the pest or weed control at 140 g/ha [1, 5] was 85 to 94%. It also gave a pest or weed control at 70 g/ha [1, 6] of 95 to 100%, a pest or weed control at 140 g/ha [1, 6] of 95 to 100% and a pest or weed control at 70 g/ha [1, 7] of 95 to 100%. The pest or weed control at 140 g/ha [1, 7] was 95 to 100%, the pest or weed control at 70 g/ha [1, 8] was 85 to 94% and the pest or weed control at 140 g/ha [1, 8] was 95 to 100%. It also gave a pest or weed control at 70 g/ha [1, 9] of 45 to 59%, a pest or weed control at 140 g/ha [1, 9] of 60 to 74% and a pest or weed control at 70 g/ha [2, 10] of 85 to 94%. The pest or weed control at 140 g/ha [2, 10] was 95 to 100%, the pest or weed control at 70 g/ha [2, 11] was 30 to 44% and the pest or weed control at 140 g/ha [2, 11] was 45 to 59%. It also gave a pest or weed control at 70 g/ha [2, 12] of 85 to 94%, a pest or weed control at 140 g/ha [2, 12] of 85 to 94% and a pest or weed control at 70 g/ha [2, 13] of 0 to 29%. It also gave a pest or weed control at 140 g/ha [2, 13] of 0 to 29%, a pest or weed control at 70 g/ha [2, 14] of 45 to 59% and a pest or weed control at 140 g/ha [2, 14] of 75 to 84%. The pest or weed control at 70 g/ha [2, 15] was 60 to 74%, the pest or weed control at 140 g/ha [2, 15] was 75 to 84% and the pest or weed control at 70 g/ha [2, 16] was 0 to 29%. The pest or weed control at 140 g/ha [2, 16] was 30 to 44%, the pest or weed control at 70 g/ha [2, 17] was 30 to 44% and the pest or weed control at 140 g/ha [2, 17] was 60 to 74%. The melting point was 141.8 to 145 °C.

Compound `COC(=O)c1nc(-c2cc(F)c(C#N)cc2F)nc(N)c1OC` [Compound 208] has a pest or weed control at 70 g/ha [1, 3] of 0 to 29%, a pest or weed control at 140 g/ha [1, 3] of 0 to 29% and a pest or weed control at 70 g/ha [1, 4] of 0 to 29%. The pest or weed control at 140 g/ha [1, 4] was 0 to 29%, the pest or weed control at 70 g/ha [1, 5] was 0 to 29% and the pest or weed control at 140 g/ha [1, 5] was 0 to 29%. The pest or weed control at 70 g/ha [1, 6] was 0 to 29%, the pest or weed control at 140 g/ha [1, 6] was 0 to 29% and the pest or weed control at 70 g/ha [1, 7] was 30 to 44%. For the same compound, the pest or weed control at 140 g/ha [1, 7] was 45 to 59%, the pest or weed control at 70 g/ha [1, 8] was 0 to 29% and the pest or weed control at 140 g/ha [1, 8] was 45 to 59%. The pest or weed control at 70 g/ha [1, 9] was 0 to 29%, the pest or weed control at 140 g/ha [1, 9] was 0 to 29% and the pest or weed control at 70 g/ha [2, 10] was 0 to 29%. The pest or weed control at 140 g/ha [2, 10] was 0 to 29%, the pest or weed control at 70 g/ha [2, 11] was 0 to 29% and the pest or weed control at 140 g/ha [2, 11] was 0 to 29%. It also gave a pest or weed control at 70 g/ha [2, 12] of 0 to 29%, a pest or weed control at 140 g/ha [2, 12] of 0 to 29% and a pest or weed control at 70 g/ha [2, 13] of 0 to 29%. The pest or weed control at 140 g/ha [2, 13] was 0 to 29%, the pest or weed control at 70 g/ha [2, 14] was 0 to 29% and the pest or weed control at 140 g/ha [2, 14] was 0 to 29%. For the same compound, the pest or weed control at 70 g/ha [2, 15] was 0 to 29%, the pest or weed control at 140 g/ha [2, 15] was 0 to 29% and the pest or weed control at 70 g/ha [2, 16] was 0 to 29%. It also gave a pest or weed control at 140 g/ha [2, 16] of 0 to 29%, a pest or weed control at 70 g/ha [2, 17] of 0 to 29% and a pest or weed control at 140 g/ha [2, 17] of 0 to 29%. The melting point was 165 to 166.5 °C.
